From ChEMBL document CHEMBL1201862, “PubChem BioAssay data set” (2004)
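These data come from cells grown in 96-well plates and exposed to compound for 48 hours at five concentrations. At the GI50, growth is halved.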 Activity calls are given as the source filed them. Rule as the data show it: active = GI50 up to about 1.1 µM and inactive = higher.

Columns and labels:
Assay in all cases: NCI anticancer screen, dose series, 48 h
MOLT-4 = test system: MOLT-4
OVCAR-8 = test system: OVCAR-8
KM12 = test system: KM12
MDA-MB-435 = test system: MDA-MB-435
SR = test system: SR
A549 = test system: A549
NCI-H226 = test system: NCI-H226
UACC-257 = test system: UACC-257
SNB-19 = test system: SNB-19
NCI-H460 = test system: NCI-H460
DU-145 = test system: DU-145
786-0 = test system: 786-0
M14 = test system: M14
MDA-MB-231 = test system: MDA-MB-231
UACC-62 = test system: UACC-62
OVCAR-4 = test system: OVCAR-4
NCI/ADR-RES = test system: NCI/ADR-RES
T47D = test system: T47D
SF-295 = test system: SF-295
HOP-62 = test system: HOP-62

Measured: GI50

COC(=O)N/N=C(\c1ccccc1)c1ccc(OC)cc1
inactive: MOLT-4 > 100 µM | OVCAR-8 > 100 µM | KM12 > 100 µM | MDA-MB-435 76.7 µM | SR > 100 µM | A549 > 100 µM | NCI-H226 > 100 µM | UACC-257 > 100 µM | SNB-19 > 100 µM | NCI-H460 > 100 µM | DU-145 > 100 µM | 786-0 > 100 µM | M14 > 100 µM | MDA-MB-231 > 100 µM | UACC-62 > 100 µM | OVCAR-4 > 100 µM | NCI/ADR-RES > 100 µM | T47D > 100 µM

CCOC(=O)c1nc2ccc(C(F)(F)F)cc2nc1NCc1cc(OC)c(OC)c(OC)c1
inactive: MOLT-4 70.8 µM | OVCAR-8 > 100 µM | KM12 32.9 µM | MDA-MB-435 35.6 µM | SR 7.38 µM | A549 73.3 µM | NCI-H226 > 100 µM | UACC-257 > 100 µM | SF-295 > 100 µM | HOP-62 > 100 µM | SNB-19 > 100 µM | DU-145 66.5 µM | 786-0 41.6 µM | M14 > 100 µM | MDA-MB-231 60 µM | UACC-62 53.5 µM | NCI/ADR-RES 94.8 µM | T47D 27.6 µM

CC1(C)[N+]([O-])=[N+]([O-])C1(C)O (centres undefined)
inactive: MOLT-4 > 100 µM | OVCAR-8 > 100 µM | KM12 > 100 µM | MDA-MB-435 > 100 µM | SR > 100 µM | A549 > 100 µM | NCI-H226 > 100 µM | UACC-257 > 100 µM | SNB-19 > 100 µM | NCI-H460 > 100 µM | DU-145 > 100 µM | 786-0 > 100 µM | M14 > 100 µM | MDA-MB-231 > 100 µM | UACC-62 > 100 µM | OVCAR-4 > 100 µM | NCI/ADR-RES > 100 µM | T47D > 100 µM

COc1ccc2c3c1OC1C(=O)C=CC4(CC2)N(C)CCC314 (centres undefined)
inactive: MOLT-4 12.8 µM | OVCAR-8 22.5 µM | KM12 14.1 µM | MDA-MB-435 12.2 µM | SR 7.21 µM | A549 22.8 µM | UACC-257 28.6 µM | SF-295 38 µM | HOP-62 29.6 µM | SNB-19 19.5 µM | NCI-H460 16.6 µM | DU-145 14.3 µM | 786-0 17.2 µM | M14 16.6 µM | MDA-MB-231 41.2 µM | UACC-62 > 10 µM | OVCAR-4 24 µM | NCI/ADR-RES 22.9 µM | T47D 19.4 µM

CCCCCCCC/C=C(\Br)C(O)C(Br)Br (centres undefined)
inactive: MOLT-4 > 100 µM | OVCAR-8 23.4 µM | KM12 19.1 µM | MDA-MB-435 21.5 µM | SR 40.8 µM | A549 31.4 µM | UACC-257 28 µM | SF-295 18 µM | HOP-62 19.6 µM | SNB-19 31.8 µM | NCI-H460 30.4 µM | DU-145 38.6 µM | 786-0 18.5 µM | M14 22.7 µM | MDA-MB-231 36.8 µM | UACC-62 19.3 µM | OVCAR-4 20.6 µM | NCI/ADR-RES 26.2 µM | T47D 31 µM

CN(C)Cc1cc(C(=O)/C=C/c2ccc(Cl)cc2)cc(CN(C)C)c1O
inactive: MOLT-4 16.3 µM | OVCAR-8 7.59 µM | KM12 4.17 µM | MDA-MB-435 13.7 µM | SR 11.1 µM | A549 8.73 µM | NCI-H226 22 µM | UACC-257 15.6 µM | SF-295 13.3 µM | HOP-62 4.36 µM | SNB-19 8.75 µM | NCI-H460 10.1 µM | DU-145 12.1 µM | 786-0 5.93 µM | MDA-MB-231 11.4 µM | NCI/ADR-RES 15.8 µM | T47D 27 µM
